Test results from US8911805B2, “Calcium preparation and method of production thereof” (Toyo Suisan Kaisha, Ltd., priority 2010, dated 2014).

Tested on: bone loss in low-Ca fed rats
Test: Oral study of solid preparation of calcium in rats (dry weight of tibia)
Assay type: in vivo, Crl:CD (SD) rats
Conditions: compared to the low calcium fed group; feed Ca content 0.5%, three weeks
Protocol: A test for the improvement, effect of the solid preparation or calcium of the present invention on bone loss in low-Ca fed rats was performed using 5-week-old male Crl:CD (SD) rats. AIN-93M was administered to 4-week old rats. After habituation for one week, various kinds of feeds were administered to the rats for three weeks. As a basic feed, a feed obtained by modifying the content of calcium in AIN-93M to 0.2% (normal feed: 0.5%) was used.
The test groups included the following six groups (one group: eight rats): a low calcium fed group to which a basic feed was administered; a group to which a basic feed containing calcium carbonate at a Ca content of 0.5% was administered; a group to which a basic feed containing freeze-dried powder of a C100P100Ca200K225 solution after aging (at 37° C. for two days) at a Ca content of 0.5% was administered; a group to which a basic feed containing freeze-dried powder of a C200P100Ca200K550 solution after aging (at 37° C. for one day) a Ca content of 0.5% was administered; a group to which a basic feed containing freeze-dried powder of a C100P100Ca200K225 solution before aging at a Ca content of 0.5% was administered; and a group to which basic feed containing calcium lactate at a Ca content of 0.5% was administered.
After three weeks, the dry weight of the extracted tibia was measured. […]

In the case of `CC(O)C(=O)[O-].CC(O)C(=O)[O-].[Ca+2]` (centres unmarked) [calcium lactate], the “bone weight (dry weight of the extracted tibia)” value is reported as “significantly increased”.

In the case of `O=C([O-])[O-].[Ca+2]` [calcium carbonate], the “bone weight (dry weight of the extracted tibia)” value is reported as “significantly increased”.
